Data reported in publication PMC9738107, “Targeting of the ELR+CXCL/CXCR1/2 Pathway Is a Relevant Strategy for the Treatment of Paediatric Medulloblastomas” (Cells, 2022).
Several values for one entry are separate records, joined by “and”; a condition that tells them apart may be missing. Identical values can stand only once.

Key:
[1] = Quantification of C29 in mouse cerebellum postmortem (LC/MS); assay type: in vivo; conditions: for Amount of C29 in cerebellum: individual animals
Protocol: A 5 mM stock solution of C29 (1.743 mg/mL) in DMSO was prepared. This solution was diluted with a mixture of acetonitrile/water, 8/4, v/v to produce the solution with the highest concentration: 1250 ng/1.2 mL. Successive dilutions with acetonitrile/water, 8/4, v/v provided 5 more standards with concentrations between 50 ng/mL and 1250 ng/mL.
Samples of cerebellum were prepared by dissolving minced biological material in 1.2 mL acetonitrile/water, 8/4, v/v. After sonication for 5 min, the vials were centrifuged (15,000 rpm) and the supernatant was filtered through a […] PTFE microfilter.
All standards and samples were analysed using a LC/MS system consisting of an Agilent 1100 HPLC chain with a degasser, a binary pump, a column oven, an automatic injector, and a UV detector. The column is a Phenomenex Gemini analytical column 3 µm C18 110 A 150 mm × 3 mm × 3 µm, at 25 °C. The solvents are water with 0.1% formic acid (solvent A) and acetonitrile with 0.1% formic acid (solvent B). The gradient is as follows: 10% B to 100% B over 8 min, 100% B over 6 min, 100% B to 10% B over 1 min, and 10% B over 3 min (total time: 18 min). The UV detection is carried out over the range of 190–400 nm (in 2 nm steps). The mass spectrometer is an LCQ Advantage (ThermoScientific, Waltham, MA, USA) of the “ion trap 3D” type, equipped with an electrospray source.
Mass spectrometric detection was carried out in negative mode and in SRM (single reaction monitoring) mode according to the monitoring of the 380.9–194.2 transition. The isolation span of the ion was 2 mass units (193.2–195.2). The applied normalized collision energy was 30%. Each standard and sample were injected in duplicate. Each duplicate was separated by a blank and the concentration of the standards ranged from […]. […] Signals were acquired based on their area and integrated using the ICIS algorithm according to the following parameters: smoothing points: 15; baseline window: 75 scans; area noise factor: 5; peak noise factor: 10. Calibration is external, and the regression was linear. The origin was included in the calibration.
A critical and limiting feature of a drug targeting MB is its ability to cross the blood–brain barrier (BBB) and reach the tumour in the brain. […] However, after 5 days of treatment, 24 h after the last administration, no more C29 was found in the cerebellum of the mice.

[2] = system: radiation resistant Daoy cells (DR1, DR2); assay: Clonogenic assay; assay type: cell-based, human
Protocol: (§1) Figure 8 C29 is efficient on radioresistant MB cell lines. (A) Cell death after 48 h of treatment with control (DMSO, CT) or C29 1, 2.5, or 5 µM on radiation-resistant cells (RR) and normal cells (N), n = 3. Statistics were performed using the one-way method ANOVA. * p < 0.05, ** p < 0.01, *** p < 0.001. For this figure, DR1 = D1, DR2 = D2, HR1 = H1, HR2 = H2, and C8D1A = C8. (B) Proliferation of DR1/DR2 (A) and HR1/HR2 (B) radio-resistant cells after 1 µM C29 treatment or control (DMSO), n = 3. (C) Clonogenic assay on DR1, DR2 (n = 3) and HR1, HR2 (n = 3) cells after treatment with control (DMSO) or C29 (1 µM or 2.5 µM). (D) Cell migration through the Boyden chamber of DR1 and DR2 cells specifically attracted by 200 ng/mL CXCL8. Cells were treated with control (DMSO) or C29 (1 and 2.5 µM). Results are expressed as percentage of control (n = 3). Scale = 1000 μm. Statistics were performed using Student t-test for 2 comparisons only or ANOVA test for multiple comparisons. * p < 0.05, ** p < 0.01, *** p < 0.001. […]
(§2) each month by using PlasmoTest Kit (#10L07‐MM, InvivoGen, Toulouse, France). Daoy and ONS‐76 belong to the Shh genetic subgroup, D341‐Med and HD‐MB03 to group 3. […]
(§3) 150 Daoy/DR1/DR2/ ONS ‐ 76 and 300 HD ‐ MB03/HR1/HR2 cells were seeded in trip‐ licate in 6‐well plates in the presence or absence of treatment (1 or 2∙5μM […] or DMSO as control). On day 9 (Daoy/ONS‐76) and day 11 (HD ‐MB03), cells were fixed in ice‐cold absolute ethanol (Sigma) for 20 min, washed with PBS and then stained with Giemsa 50% for 30 min. The number of clones was quantified using ImageJ software. We only considered clones containing more than 50 cells. […]
Violet. […]
(§4) 5000 cells were plated in 48 multi‐well plates coated with agarose 0∙8%. After two days, spheroids were mixed with 100μl of matrigel mix (200μl of matrigel (Corning Mat‐ rigel Matrix, Fontenay‐sous‐Bois, France), 100 μl collagen I (8 mg/ml, Corning), 80 μl HEPES 1M and 320μl respective medium) in 12 multi‐well plates. […]

HR2 cells = assay: Clonogenic assay; assay type: cell-based, human; conditions: HR2, 2.5 µM
Protocol: as §1, §2, §3
Violet. […]
as §4

HD-MB03 cells = assay: Clonogenic assay; assay type: cell-based, human; conditions: HD-MB03, 1 µM
Protocol: (§5) Figure 4 C29 reduces proliferation, migration, and invasion of naïve MB cells. (A) Proliferation of Daoy, ONS-76, HD-MB03, and D341Med wild-type cells after treatment with 1 μM C29 or the control (DMSO), n = 3. (B) Clonogenic assay on Daoy (n = 4), ONS-76 (n = 3) and HD -MB03 (n = 5) cells after treatment with control (DMSO) or C29 (1 μM or 2.5 μM). Scale = 500 μm. (C) Cell migration through the Boyden chamber of Daoy and ONS-76 cells specifically attracted by 200 ng/mL CXCL8. Results are expressed as percentage of control (DMSO) (n = 3). Scale = 1000 μm. (D) Spheroid invasion using 3D culture cell assays on Daoy (n = 4) and ONS-76 cells (n = 3) treated with control (DMSO) or C29 at a concentration of 1 μM on day 0, 1, and 2. Results are expressed as percentage of day 0, n = 4. Scale = 500 μm. Statistics were performed using Student t-test for 2 comparisons only or ANOVA test for multiple comparisons. * p < 0.05, ** p < 0.01, *** p < 0.001. […]
as §2, §3
Violet. […]
as §4

Daoy cells = assay: Clonogenic assay; assay type: cell-based, human; conditions: 1 µM
Protocol: as §5, §2, §3
Violet. […]
as §4

ONS-76 cells = assay: Clonogenic assay; assay type: cell-based, human
Protocol: as §5, §2, §3
Violet. […]
as §4

Compound: O=C(Nc1cccc(Cl)c1)Nc1nc2ccc([N+](=O)[O-])cc2s1 [C29, 1-(3-chlorophenyl)-3-(6-nitrobenzo[d]thiazol-2-yl) urea]
- Accumulation in cerebellum upon repeated administration ([1]; 5 days of treatment, 24 h after the last administration): does not accumulate
- Amount of C29 in cerebellum ([1]; gavage 100 mg/kg daily, chronic (5 days), 24 h after last treatment): 0 ng C29/mg cerebellum
- Amount of C29 in cerebellum ([1]; gavage 100 mg/kg, acute (3 h), 100 mg/kg): 0 ng C29/mg cerebellum and 5.394 ng C29/mg cerebellum
- Amount of C29 in cerebellum ([1]; gavage 200 mg/kg daily, chronic (5 days), 24 h after last treatment): 0 ng C29/mg cerebellum
- Amount of C29 in cerebellum ([1]; gavage 200 mg/kg, acute (3 h), 200 mg/kg): 13.1 ng C29/mg cerebellum and 9.3 ng C29/mg cerebellum and 7.4 ng C29/mg cerebellum and 4.7 ng C29/mg cerebellum and 6.4 ng C29/mg cerebellum
- Blood–brain barrier crossing ([1]; oral administration): can cross the blood–brain barrier
- Clone formation ([2]; DR1, DR2, 1 µM): effective
- Clone formation ([2]; DR1, DR2, 2.5 µM): completely prevented clone formation
- Clone formation (HR2 cells): significantly reduced clone formation
- Clone formation (HD-MB03 cells): inhibited clone formation
- Clone formation (Daoy cells): inhibited clone formation
- Clone formation (ONS-76 cells; ONS-76, 1 µM): some clones were maintained
- Clone formation (ONS-76 cells; ONS-76, 2.5 µM): disappeared completely
